Test results taken from US12611387B2, “Compound and composition for inducing neuroprotection” (REST THERAPEUTICS, priority 2020, dated 2026).

Legend:
[1] = test system: lipid peroxidation; experiment: Lipid peroxidation in hippocampus, Aβ25-35 oligomer neuroprotection design; type: in vivo, mice; conditions: 0.3 mg/Kg
Protocol: The neuroprotective effect of the compounds, i.e. the ability thereof to protect cells from Aβ25-35 oligomer neurotoxicity and neurodegeneration, is also tested (FIG. 10). The test compounds are thus administered on the same day as the injection of the Aβ25-35 oligomers and are continued to be administered on a daily basis up to day 7 after the injection of the oligomers, at which time the mice are subjected to the YMT, PAT, MWT or ORT. The brain's anatomy is analysed and neuronal cells are counted by immunohistochemistry on mice sacrificed at D13. The biochemical analyses for the quantification of markers of oxidative stress and apoptosis were carried out at D16 on a group of mice that had been subjected to the WMT (FIG. 10). […]
The amount of hydroperoxide present in the samples was measured by quantifying the Fe^3+-xylenol orange complex: in an acidic medium, hydroperoxides oxidise the Fe^2+ to Fe^3+. The latter forms a coloured complex with xylenol orange, the formation whereof was quantified by measuring its absorbance at 580 nm.
After thawing, the hippocampi were homogenised in cold methanol (1/10 w/v), centrifuged at 1000 g for 5 min and the supernatant was collected. […] The absorbance at 580 nm (A5801) was measured and 10 μl of cumene hydroperoxide (CHP, 1 mM) was added and the entirety was incubated for 30 min at ambient temperature. […]

[2] = test system: GFAP; experiment: Immunohistochemical quantification of GFAP (astrogliosis); type: in vivo, mice; conditions: 0.3 mg/Kg i.p.
Protocol: (§1) The neuroprotective effect of the compounds, i.e. the ability thereof to protect cells from Aβ25-35 oligomer neurotoxicity and neurodegeneration, is also tested (FIG. 10). The test compounds are thus administered on the same day as the injection of the Aβ25-35 oligomers and are continued to be administered on a daily basis up to day 7 after the injection of the oligomers, at which time the mice are subjected to the YMT, PAT, MWT or ORT. The brain's anatomy is analysed and neuronal cells are counted by immunohistochemistry on mice sacrificed at D13. The biochemical analyses for the quantification of markers of oxidative stress and apoptosis were carried out at D16 on a group of mice that had been subjected to the WMT (FIG. 10).
They were previously anaesthetised by i.p. injection of 200 μL of a solution of ketamine (80 mg/Kg) and xylazine (10 mg/Kg), then the tissues were fixed by intracardiac perfusion of 50 mL of a saline solution followed by 50 mL of Antigenfix® fixative (Diapath). The samples were kept for a further 48 hours in the fixative at 4° C., and then the mouse brains were stored in a 30% sucrose solution in PBS, before being sliced.
Slices were taken of each area of the brain, in particular the cortex, the nucleus basalis magnocellularis and the hippocampus (i.e. between bregma +1.8 and bregma −2.8 according to the stereotaxic coordinates of the mouse brain, Paxinos et al., 2004). Serial coronal sections with a thickness of 25 μm were cut with a freezing microtome (Microm HM 450, Thermo Fisher) and stored at −20° C. in a cryoprotective solution. […]
Immunohistochemical labelling is carried out in a conventional manner. […] After rinsing with PBS, the sections were mounted in a mounting fluid (ProLong, ThermoFischer) and images of each section were taken with a confocal fluorescence microscope (Leica SPE) for different sub-regions of the hippocampus such as the stratum radiatum (Rad), the stratum moleculare (Mol), the polymorphic layer of the dentate gyrus (PoDG) and for the cortex, the lateral parietal association area (LPtA). […]

[3] = test system: Aβ25-35 oligomer-intoxicated mice; experiment: Morris water maze test, neuroprotection design; type: in vivo; conditions: 0.3 mg/Kg, probe test
Protocol: as §1
This test is used to assess long-term spatial reference memory. […] The animals' swimming behaviour was recorded (Videotrack® software, Viewpoint), and the trajectories, latencies and distances covered were measured. […] Median latency (time taken to find the platform) was calculated for each training day and expressed for the group as the mean latency±standard deviation. […] Each mouse was left in the water for 60 seconds and its swimming behaviour was recorded. The time spent in the north-eastern quadrant, which originally contained the platform (T), was measured and compared to the average time spent in the other quadrants (o).

[4] = test system: IL-6; experiment: IL-6 ELISA in hippocampus, Aβ25-35 oligomer neuroprotection design; type: in vivo; conditions: 0.3 mg/Kg i.p., compared to intoxicated but untreated mice
Protocol: as §1
Their brains were removed, and the hippocampi were isolated, weighed and frozen at −80° C. awaiting biochemical analysis.
Interleukin 6 (IL-6), a cytokine inflammatory marker, and the levels of the apoptosis markers Bcl2 and Bax proteins were measured in mouse hippocampi by the ELISA tests listed in Table 1 hereinbelow. Bcl2 is often referred to as an anti-apoptotic marker and Bax as a pro-apoptotic marker. […] After centrifugation (10,000 g, 5 min, 4° C.), the supernatants containing the markers to be measured were aliquoted and stored at −80° C. until the ELISA test was carried out according to the supplier's instructions. […]

Structure (SMILES): NC12CC3CC(C1)CC(CCF)(C3)C2 [FENM, 3-(2-fluoroethyl)adamantan-1-amine]
- level of lipid peroxidation in the hippocampus [1]: level equivalent to that of the control group
- GFAP labelling (astrocytic response) ([2]; all brain areas tested (Rad, Mol, PoDG, LPtA)): significantly decreases the astrocytic and microglial response in all of the brain areas tested
- time spent in the training quadrant (learning and long-term spatial memory) [3]: maintained their learning and memory abilities
- IL-6 level in the hippocampus [4]: significantly lower than that of untreated, intoxicated mice

Structure (SMILES): CC12CC3CC(C)(C1)CC(N)(C3)C2 [memantine, 3,5-Dimethyl-1-adamantanamine, reference compound]
- level of lipid peroxidation in the hippocampus [1]: did not significantly decrease the level of lipid peroxidation
- GFAP labelling (astrogliosis) ([2]; Mol): no effect on astrogliosis in the Mol
- GFAP labelling (astrocytic response) ([2]; PoDG area): positive effect in the PoDG area
- time spent in the training quadrant (learning and long-term spatial memory) [3]: did not prevent the impairment of learning and memory functions
- IL-6 level in the hippocampus [4]: did not result in a significant decrease in IL-6 levels
